Data published in patent publication US7754483B2, “Systems and methods for selection and maintenance of homogeneous and pluripotent human embryonic stem cells” (The Penn State Research Foundation, priority 2005, dated 2010).

What was measured:
hES cells [1] = assay: In vitro differentiation of hES cells; assay type: cell-based, human; conditions: after elimination of ceramide-sensitive cells
Text: Once separated from feeder cells and serum, hES cells typically spontaneously differentiate into progenitor cells and such cultures include ectoderm, mesoderm and endoderm progenitor cells. Similar to in vivo embryogenesis, further differentiation of these progenitor cells results in formation of terminally differentiated cell types illustratively including neurons, cardiomyocytes, endothelial, and pancreatic β-cells. The ability of hES cells to form all three embryonic lineages is one of the main criteria to determine their pluripotency. Early lineage differentiation is assessed using lineage specific markers. Exemplary lineage specific markers include nestin for ectodermal; α-fetoprotein for endodermal; and brachyury for mesodermal. Later stages of differentiation of these progenitor cells into specialized cells are assessed by assay of markers for more specialized cells representing three lineages, such as serotonergic neurons, insulin-positive cells, and cardiomyocytes.
To assess in vitro differentiation, hES cells are isolated and transferred into non-coated culture plates where hES cells form embryoid bodies (EBs). For neuronal differentiation, these EBs are treated with a neurobasal medium (insulin-transferrin-selenium) to induce neuroprogenitor cell formation for seven days. Then, bFGF ([…]) is added to medium for another seven days. […]

hES cells, H1 or H9 = assay: Liposomal ceramide treatment of hES cell colonies co-cultured with mouse feeder cells; assay type: cell-based
Method: Mouse feeder cells are irradiated (7500 Rad) and plated (2×10^4 cells/cm^2) on 6-well plates pre-coated with 0.1% gelatin. Feeder cells are allowed to attach and grow overnight prior to hES cell co-culture. Human ES cells are maintained with Dulbecco's Modified Eagle Medium/F12 (Gibco) supplemented with 20% KnockOut serum replacement (Gibco), 1% nonessential amino acids (Gibco), 2 mM GlutaMAX-1 (Gibco), 4 ng/ml basic human FGF (Invitrogen) and 0.1 mM beta-mercaptoethanol (Sigma). Cells are manually passaged following 10 min of collagenase IV incubation (1 mg/ml) at 1:5-1:10 split ratio every 5-7 days. […] Human ES cells co-cultured with feeder cells are treated with collagenase IV for 10 min, collected manually and plated in a 1:3-1:5 split ratio (day=0). Cells are maintained with normal hES cell culture medium until treatment with ceramide (day=2).
Increasing concentrations, 1, 3, 5, 10, 15 and 30 micromolar, of liposomal C6-ceramide are added to hES cell culture medium after a majority of the colonies had reached a size between 0.5-0.7 mm in diameter (day 5-6 of the culture). Relative volumes of “ghost liposome” containing no ceramide are used as a control. These ghost liposomes contained an equal mass of total lipids as ceramide formulations. […]

hES cells [2] = assay: Apoptosis detection by TUNEL assay; assay type: cell-based, human; conditions: Example 22, hESC colonies
Method: Ceramide-induced apoptosis is assessed and visualized by TUNEL assay using the In Situ Cell Death Detection Kit, TMR Red (Roche Applied Bioscience). A TUNEL (Terminal deoxynucleotidyl Transferase Biotin-dUTP Nick End Labeling) assay measures and quantitates apoptosis by labeling DNA strand breaks in individual cells and detecting them by fluorescence microscopy. Human ES cells are cultured on glass cover-slips coated with 0.1% gelatin and mouse feeder cells. When the majority of the colonies reached the size of 0.5-0.7 mm (usually by day 5 of the culture), cells are treated with liposomal C6-ceramide (3 micromolar final) or ghost (no ceramide) for 12 hr. Cells are incubated for 12 hr because cells undergoing apoptosis are still attached to the cover-slip, making observation convenient. After 12 hr, cells become round and detached. At the end of the treatment period, cells are fixed with 4% formaldehyde (Tousimis) in PBS. TUNEL assay is performed using the In Situ Cell Death Detection Kit, TMR Red (Roche Applied Bioscience) following the manufacturer's instructions. Briefly, cells are permeabilized by incubating in 0.1% PBST for 2 min on ice. TUNEL reaction mixture is prepared freshly by mixing 50 microliters of enzyme solution (terminal deoxynucleotidyl transferase) with 450 microliters label solution (nucleotide mixture). […]

[3] = system: hES cells maintained in feeder cells-free culture system; assay: Liposomal ceramide treatment of hES cells in feeder cell-free culture (GFR-MATRIGEL); assay type: cell-based, human; conditions: five micromolar
Text: NIH-registered hES cell lines, H1 (WA-01; 46XY) and H9 (WA-09; 46XX), are maintained on mouse embryonic fibroblasts (feeder cells) as recommended by the WiCell Research Institute (Madison, Wis.). Mouse feeder cells are irradiated (7500 Rad) and plated (2×10^4 cells/cm^2) on 6-well plates pre-coated with 0.1% gelatin. Feeder cells are allowed to attach and grow overnight prior to hES cell co-culture. Human ES cells are maintained with Dulbecco's Modified Eagle Medium/F12 (Gibco) supplemented with 20% KnockOut serum replacement (Gibco), 1% nonessential amino acids (Gibco), 2 mM GlutaMAX-1 (Gibco), 4 ng/ml basic human FGF (Invitrogen) and 0.1 mM beta-mercaptoethanol (Sigma). Cells are manually passaged following 10 min of collagenase IV incubation (1 mg/ml) at 1:5-1:10 split ratio every 5-7 days. For feeder cell-free culture, hES cells are plated and cultured on 6-well dishes coated with growth factor reduced (GFR)-MATRIGEL, diluted 1:24 in DMEM/F12. Human ES cells co-cultured with feeder cells are treated with collagenase IV for 10 min, collected manually and plated in a 1:3-1:5 split ratio (day=0). Cells are maintained with normal hES cell culture medium until treatment with ceramide (day=2). […]
Light microscopy images of cells from 10 random fields are recorded using a Nikon TS-100 phase-contrast microscope and a Nikon CoolPix 5000 digital camera. […]

**Q.** How did the “differentiation capability of ceramide-selected hES cells” value (hES cells [1]) turn out when ceramide was run?
**A.** capable of differentiated into ectoderm, mesoderm or endoderm progenitor cells

**Q.** And the “effect on peripheral cells of H9 hESC colonies” value (hES cells, H1 or H9; 5 micromolar, 8 hrs, H9 (WA09), with MEF)?
**A.** eliminates cells located on the periphery of the hESC colonies

**Q.** And the “growth of central hESCs after addition of ceramide” value (hES cells, H1 or H9; Example 22)?
**A.** continue their normal growth

**Q.** What about the “TUNEL: apoptosis after ceramide-conditioning” value (hES cells [2]) of the same substance?
**A.** hESCs on the periphery of the colonies are, indeed, undergoing apoptosis

**Q.** And the “effect on differentiation of hESCs without feeder cells” value [3]?
**A.** inhibits differentiation and allows maintenance of undifferentiated stem cell growth
